Inconclusive results are not listed. Active and inactive are the calls of the source. The rule behind the calls is not given here. *1 amine or outer side, *2 acyl side, *3 side chain or, on linkers, in order; H or OH if unused. Where a SMILES comes first, the peptide text is derived from it. Bridges are numbered along the chain shown (N, C = ends). Roman numbers before positions name the chains, in order. [ ]: non-standard residue; d: D form. Actinocin(9to1) = Cc1c2oc3c(C)ccc(C(=O)[*:1])c3nc-2c(C(=O)[*:2])c(N)c1=O; NMeV = CN[C@H](C(=O)O)C(C)C; Sar = CNCC(=O)O

In the data set the test system is mouse/rat in vivo micronucleus assay, summary call. The data set can be described thus: In vivo micronucleus assay summary data. The source says: The erythrocyte micronucleus test examines the ability of substances to cause chromosome damage in developing red blood cells inside bone marrow. A micronucleus (literally, "little nucleus") is a biomarker of structural chromosome damage (e.g., breaks) and changes in chromosome number (e.g., chromosome loss). If a chromosome is broken or fails to migrate properly with other chromosomes during cell division, the broken piece or lost chromosome will form a small (micro) nucleus of its own in one of the two daughter cells produced. Detection of chromosomal damage is important because it has been linked to birth defects, infertility, and certain diseases, including cancer.
The micronucleus test is performed in rapidly dividing cell populations, and bone marrow is a site of rapid blood cell division. Both bone marrow and peripheral blood samples can be examined for the presence of micronuclei in red blood cells.
Animals are treated with a test substance once or daily over a period of time, and the frequency of micronucleated cells is determined 24-48 hours after the final treatment, depending on the source of the cells (bone marrow or blood) that are examined and the treatment regimen.
The test subjects are rodents (rats or mice) that are exposed to the test substance, usually by oral gavage or injection. Typically, one to three daily treatments of the test substance are administered over a range of doses; the highest dose tested is near the maximum tolerated dose. Groups of negative and positive control animals are included for each test. Bone marrow samples are obtained from all animals 24 hours after the last treatment, and red blood cells are examined for the presence of micronuclei.
B. Peripheral Blood Tests
Micronucleus tests are performed on male and female rodents that are exposed to the test substance orally, dermally, or by inhalation in subchronic (e.g., 28 or 90 days) or short term (e.g., 48-72 hours) toxicity studies. 24 to 48 hours after the final exposure, peripheral blood samples are obtained and red blood cells are examined for the presence of micronuclei. Samples may be examined using standard slide scoring procedures or automated flow cytometric approaches. Since 2007, NTP has routinely relied on flow cytometry to evaluate the frequency of micronucleated cells in peripheral blood.
Peripheral blood micronucleus assays are typically integrated into all NTP toxicity studies, and they also lend themselves to serial monitoring of micronucleus frequencies over time, since blood samples can be obtained without the need to sacrifice the animals.
Blood or bone marrow samples from treated animals are compared to samples from untreated animals. With the slide-based approach for data acquisition, 1000-2000 cells were scored per animal. Using flow cytometric procedures to evaluate blood samples, 20,000 immature red blood cells and around one million mature red blood cells are examined per animal, resulting in a marked increase in the ability to detect small changes in the frequency of micronucleated red blood cells. The data is analyzed using statistical methods to determine if there is a significant increase in the frequency of cells containing micronuclei. Both dose-related responses and the magnitude of response for each independent dose group are considered during the evaluation of the data. For a positive test, both a significant dose response (trend) and at least one significant dose group are required. If only one of these measures is present, the test is determined to be questionable. The absence of either condition results in a negative test. The final conclusions for micronucleus tests are determined by considering the results of statistical analyses, reproducibility of any observed effects, and the magnitude of the effects. Ultimately, both the biological significance as well as statistical significance is considered when reaching a final conclusion.
[…]
On to `CC#N`, for which the outcome was “active; positive”. With `Cc1cc(O)c2c(c1)C(=O)c1cc(O)cc(O)c1C2=O` the entry was “active; positive”; with `O=P1(N(CCCl)CCCl)NCCCO1` (stereo unspecified), “active; positive”; with `Cc1cccc([N+](=O)[O-])c1`, “inactive; negative”. The same measure for `FC(F)(F)c1ccc(Cl)cc1`: “active; positive”; for `C=CC(=O)NCCNC(=O)C=C`: “active; positive (nonstandard protocol)”; for `CCn1cc[n+](C)c1`: “inactive; negative”. With `[O-][Br+2]([O-])O` the entry was “active; positive”; with `Nc1ccc(S(=O)(=O)Nc2ccccn2)cc1`, “active; positive”; with `Cn1c(=O)c2[nH]cnc2n(C)c1=O`, “active; positive”.

Regarding `CC(=O)C1(C)CC2=C(CCCC2(C)C)CC1C` (stereo unspecified), the outcome is “active; positive”. For the compound `NC(=O)NO`, the outcome was “active; positive”. With `Nc1cccc(Cl)c1` the entry was “inactive; negative”. `C=CC(=O)OCC(CO)(COC(=O)C=C)COC(=O)C=C`: the outcome is “active; positive”.

For `c1cc(OCC2CO2)cc(OCC2CO2)c1` (stereo unspecified), the outcome is “active; positive”. The same measure for `C=CCOCC1CO1` (stereo unspecified): “active; positive”; for `CC[C@H](CC[C@@H](C)[C@H]1CC[C@H]2[C@@H]3CC=C4C[C@@H](O)CC[C@]4(C)[C@H]3CC[C@]12C)C(C)C`: “inactive; negative”; for `CC1=CC(=O)NS(=O)(=O)O1`: “active; positive”. On to `O=S1(=O)CCCC1`, for which the outcome is “inactive; negative”. The same measure for `OCC1CO1` (stereo unspecified): “active; positive”; for `CCCC[N+]1(C)CCCC1`: “active; negative”; for `C=COC(C)=O`: “active”. The same measure for `Cc1c(N)cccc1N`: “active; positive”; for `CC(C)(C)c1ccc(O)c(O)c1`: “inactive; negative”. With `Oc1cccc(O)c1` the entry was “active; positive”; with `CC(C)c1ccccc1`, “active; negative”.

With `C1CCC2CCCCC2C1` (stereo unspecified), the outcome was “active; weakly positive”. With `Oc1ccc(/C=C/c2cc(O)cc(O)c2)cc1` the entry was “inactive; negative”; with `O=C(O)C(Br)Br`, “active; positive”. Turning to `[O]=[Cr](=[O])([OH])[O][Cr](=[O])(=[O])[OH]`, the outcome is “active; positive”. With `Cc1cccc(Nc2cc(Cl)nc(SCC(=O)O)n2)c1C` the entry was “inactive; negative”. In the case of `CCOS(C)(=O)=O`, the outcome is “active; positive”. As to `c1ccc(N=NNc2ccccc2)cc1`, the outcome is “active; positive”. In the case of `O=CC=CC=Cc1ccc([N+](=O)[O-])cc1`, the outcome is “active; positive (nonstandard protocol)”. The same measure for `C[C@]12CC[C@@H]3c4ccc(O)cc4CC[C@H]3[C@@H]1CC[C@@H]2O`: “inactive; negative”; for `C1CN1c1nc(N2CC2)nc(N2CC2)n1`: “active; positive”; for `ClC(Cl)Cl`: “active; positive”.

Take `C=CC(=C)C`: the outcome is “active; positive”. With `C=CCO` the entry was “inactive; negative”; with `COC(=O)[C@H](Cc1ccccc1)NC(=O)[C@@H](N)CC(=O)O` (H-Asp-Phe-OMe), “active; positive”. For the compound `O=C1C=CCCC1`, the outcome is “inactive; negative”.

In the case of `C[N+](C)(C)Cc1ccccc1`, the outcome was “active; positive”. For `CS(=O)(=O)OC[C@H](O)[C@@H](O)COS(C)(=O)=O`, the outcome was “active; positive”.

Regarding `CCCCCC=CC=CC=O`, the outcome is “active; equivocal”. With `O=C1O[C@H]([C@@H](O)CO)C(O)=C1O` the entry was “active; positive”; with `Cc1cnc[nH]1`, “inactive; negative”. With `O=C(O)C(F)(F)C(F)(F)C(F)(F)C(F)(F)C(F)(F)C(F)(F)C(F)(F)F` the entry was “active”. For `[O]=[Sb][O][Sb]=[O]`, the outcome was “active; positive”. The same measure for `O=C1OC(c2ccc(O)cc2)(c2ccc(O)cc2)c2ccccc21`: “active; positive”; for `CC(C)N=C=NC(C)C`: “active; positive”; for `CC(C)C=O`: “inactive; negative”. As to `Nc1ncnc2c1ncn2[C@H]1CC[C@@H](CO)O1`, the outcome is “active; positive”. With `Nc1ccc(-c2ccccc2)cc1` the entry was “active; positive”; with `Cc1c2oc3c(C)ccc(C(=O)N[C@@H]4C(=O)N[C@H](C(C)C)C(=O)N5CCC[C@H]5C(=O)N(C)CC(=O)N(C)[C@@H](C(C)C)C(=O)O[C@@H]4C)c3nc-2c(C(=O)N[C@@H]2C(=O)N[C@H](C(C)C)C(=O)N3CCC[C@H]3C(=O)N(C)CC(=O)N(C)[C@@H](C(C)C)C(=O)O[C@@H]2C)c(N)c1=O` (I: T[dV]P[Sar][NMeV] / II: T[dV]P[Sar][NMeV]; ester I:1-I:C, II:1-II:C; linker I:N-II:N via Actinocin(9to1)), “active; positive”. As to `CBr`, the outcome is “active; positive”.

In the case of `CN(N=O)C(N)=O`, the outcome is “active; positive”.

Take `COc1cc(Cc2cnc(N)nc2N)cc(OC)c1OC` (tested in a mixture with another compound): the outcome is “active; positive”. With `C=CC(N)=O` the entry was “active; positive”; with `CC(C)=CCl`, “active; positive”; with `Cc1cn([C@H]2C=C[C@@H](CO)O2)c(=O)[nH]c1=O`, “active; positive”. Consider `CCCCC(CC)COC(=O)c1ccccc1C(=O)OCC(CC)CCCC` (stereo unspecified), for which the outcome is “active; positive”. The same measure for `COc1cccc2c1C(=O)c1c(O)c3c(c(O)c1C2=O)C[C@@](O)(C(=O)CO)C[C@@H]3O[C@H]1C[C@H](N)[C@H](O)[C@H](C)O1`: “active; positive”.

With `c1ccccc1`, the outcome is “active; positive”. In the case of `O=S(=O)(c1ccc(Cl)cc1)c1ccc(Cl)cc1`, the outcome was “active; positive”. The same measure for `ClCC(Cl)(Cl)Cl`: “active; positive”; for `ClCCOCOCCCl`: “inactive; negative”; for `Nc1ccn([C@H]2CC[C@@H](CO)O2)c(=O)n1`: “active; positive”. `C=CCOC(C)=O`: the outcome was “active; weakly positive”. Turning to `CC[n+]1c(-c2ccccc2)c2cc(N)ccc2c2ccc(N)cc21`, the outcome is “inactive; negative”. As to `ClC=CCCl`, the outcome was “active; positive”. With `O=C1c2ccccc2C(=O)c2ccccc21` the entry was “active; positive”; with `[O-][N+](=Nc1ccc(Cl)c(Cl)c1)c1ccc(Cl)c(Cl)c1`, “active; positive”; with `Cc1cn([C@H]2C[C@H](N=[N+]=[N-])[C@@H](CO)O2)c(=O)[nH]c1=O`, “active; positive”. The same measure for `Nc1cc([N+](=O)[O-])ccc1O`: “inactive; negative”; for `Oc1ccc(O)cc1`: “active; positive”. The same measure for `CC(=O)C(C)O` (stereo unspecified): “inactive; negative”.
